# Assay results taken from ChEMBL document CHEMBL1133131, “Discovery of an orally bioavailable alkyl oxadiazole beta3 adrenergic receptor agonist” (Bioorg Med Chem Lett, 2000).
# The source made the active and inactive calls. No cut-off for these calls is given here.
# Legend:
# [1] = target: Beta-2 adrenergic receptor (Homo sapiens, UniProt P07550); test: Binding affinity towards Beta-2 adrenergic receptor prepared from CHO cells expressing the cloned human receptor in the presence of [125I]iodocyanopindolol; type: cell-based
# [2] = target: T1, Beta-3 adrenergic receptor (Homo sapiens, UniProt P13945); test: Adenylyl cyclase activation as percent maximal isoproterenol stimulation of CHO cells expressing beta-3 receptor; type: functional, cell-based
# Target sequence in this assay (P13945 whole entry, looked up): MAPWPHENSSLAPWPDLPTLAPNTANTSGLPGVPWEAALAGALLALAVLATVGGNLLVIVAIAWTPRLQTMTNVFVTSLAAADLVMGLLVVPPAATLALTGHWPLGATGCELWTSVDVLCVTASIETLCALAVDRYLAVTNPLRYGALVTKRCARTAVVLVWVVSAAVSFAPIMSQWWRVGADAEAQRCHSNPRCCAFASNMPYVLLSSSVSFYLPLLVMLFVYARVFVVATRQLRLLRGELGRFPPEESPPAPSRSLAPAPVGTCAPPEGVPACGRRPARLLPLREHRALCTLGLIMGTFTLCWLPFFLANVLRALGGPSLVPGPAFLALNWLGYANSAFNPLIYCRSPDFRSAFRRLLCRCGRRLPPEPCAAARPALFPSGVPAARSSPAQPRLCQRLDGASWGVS
# [3] = target: T1, Beta-3 adrenergic receptor; test: Agonist activity as increasedn cAMP production in Chinese hamster ovary (CHO)cells expressing human beta-3 adrenergic receptor; type: functional
# Target sequence in this assay (P13945 whole entry): as the sequence (P13945 whole entry, looked up) above
# [4] = target: Beta-1 adrenergic receptor (Homo sapiens, UniProt P08588); test: Binding affinity towards cloned human Beta-1 adrenergic receptor prepared from CHO cells in the presence of [125I]iodocyanopindolol; type: cell-based
# [5] = Half life in dog; type: ADME, organism-based, Canis lupus familiaris; settings: in vivo
# [6] = Half life in rats; type: ADME, organism-based; settings: rat, in vivo
# [7] = Oral bioavailability of intravenously administered compound (3 mg/kg) was tested in rats; type: ADME, organism-based; settings: rat, in vivo, intravenous
# [8] = tested on: Monkey; test: The compound was tested for the percent increase in heart rate at the dose level of 10 mg/kg; No significant alteration; type: functional, organism-based; design: dose 10 mg/kg; settings: Cercopithecidae
# [9] = tested on: Monkey; test: The compound was evaluated for dose- dependent elevation of plasma glycerol in anesthetized rhesus; type: functional; settings: Cercopithecidae, in Macaca mulatta
# [10] = Oral bioavailability of perorally administered compound (10 mg/kg) was tested in dogs; type: ADME, organism-based, Canis lupus familiaris; settings: dog, in vivo
# Sequence of Beta-1 adrenergic receptor (P08588 whole entry): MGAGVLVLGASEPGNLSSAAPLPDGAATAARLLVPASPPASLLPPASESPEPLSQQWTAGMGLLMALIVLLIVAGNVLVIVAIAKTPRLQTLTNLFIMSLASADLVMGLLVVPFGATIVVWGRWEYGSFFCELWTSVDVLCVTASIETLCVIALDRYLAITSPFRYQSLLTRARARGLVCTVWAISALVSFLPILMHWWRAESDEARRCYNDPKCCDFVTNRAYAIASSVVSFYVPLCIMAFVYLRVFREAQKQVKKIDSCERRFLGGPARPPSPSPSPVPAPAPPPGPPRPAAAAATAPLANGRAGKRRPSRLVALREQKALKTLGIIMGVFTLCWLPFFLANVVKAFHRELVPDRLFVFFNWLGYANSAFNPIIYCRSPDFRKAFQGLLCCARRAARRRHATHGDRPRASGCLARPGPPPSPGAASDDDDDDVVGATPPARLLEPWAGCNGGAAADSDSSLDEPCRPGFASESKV
# Sequence of Beta-2 adrenergic receptor (P07550 whole entry): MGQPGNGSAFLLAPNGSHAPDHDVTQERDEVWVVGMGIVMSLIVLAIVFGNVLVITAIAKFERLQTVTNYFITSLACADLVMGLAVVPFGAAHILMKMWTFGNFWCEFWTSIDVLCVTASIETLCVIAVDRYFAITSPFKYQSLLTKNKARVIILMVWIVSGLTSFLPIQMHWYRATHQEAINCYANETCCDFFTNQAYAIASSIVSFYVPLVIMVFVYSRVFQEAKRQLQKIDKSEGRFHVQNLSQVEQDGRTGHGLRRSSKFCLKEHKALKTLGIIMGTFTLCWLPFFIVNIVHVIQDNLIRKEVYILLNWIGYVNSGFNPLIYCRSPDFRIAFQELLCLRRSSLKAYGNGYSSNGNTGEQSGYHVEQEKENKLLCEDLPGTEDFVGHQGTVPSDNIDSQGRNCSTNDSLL
SMILES,IC50 [1],Activation [2],EC50 [3],IC50 [4],half-life [5],half-life [6],bioavailability [7],Activity [8],ED50 [9],bioavailability [10]
CC(C)CCCc1nc(-c2ccc(S(=O)(=O)Nc3ccc(CCNC[C@H](O)c4cccnc4)cc3)cc2)no1,1 µM,58%,0.029 µM,26 µM,,,,,,
O=S(=O)(Nc1ccc(CCNC[C@H](O)c2cccnc2)cc1)c1ccc(-c2noc(CCOC3CCCC3)n2)cc1,2.67 µM,70%,0.013 µM,8.33 µM,,,,,,
O=S(=O)(Nc1ccc(CCNC[C@H](O)c2cccnc2)cc1)c1ccc(-c2noc(CCCC3CCCCC3)n2)cc1,0.66 µM,62%,0.019 µM,1.97 µM,,,,,,
CCCCCCCCc1nc(-c2ccc(S(=O)(=O)Nc3ccc(CCNC[C@H](O)c4cccnc4)cc3)cc2)no1,2.5 µM,90%,0.054 µM,9 µM,,,,,,
CCCCCCCc1nc(-c2ccc(S(=O)(=O)Nc3ccc(CCNC[C@H](O)c4cccnc4)cc3)cc2)no1,1.41 µM,86%,0.039 µM,2 µM,,,,,,
O=S(=O)(Nc1ccc(CCNC[C@H](O)c2cccnc2)cc1)c1ccc(-c2noc(CCCC3CCCC3)n2)cc1,0.962 µM,83%,0.015 µM,5.5 µM,,,,,,
CC(O)CCCc1nc(-c2ccc(S(=O)(=O)Nc3ccc(CCNC[C@H](O)c4cccnc4)cc3)cc2)no1 (stereo not given in full),44 µM,20%,> 0.1 µM,10 µM,,,,,,
CCCc1nc(-c2ccc(S(=O)(=O)Nc3ccc(CCNC[C@H](O)c4cccnc4)cc3)cc2)no1,8.5 µM,70%,0.087 µM,8.5 µM,,,,,,
O=C(CCc1nc(-c2ccc(S(=O)(=O)Nc3ccc(CCNC[C@H](O)c4cccnc4)cc3)cc2)no1)N1CCCC1,51 µM,49%,0.12 µM,30 µM,,,,,,
CCC(=O)CCc1nc(-c2ccc(S(=O)(=O)Nc3ccc(CCNC[C@H](O)c4cccnc4)cc3)cc2)no1,12 µM,75%,0.066 µM,25 µM,,,,,,
CCC(O)CCc1nc(-c2ccc(S(=O)(=O)Nc3ccc(CCNC[C@H](O)c4cccnc4)cc3)cc2)no1 (stereo not given in full),24 µM,53%,0.075 µM,56 µM,,,,,,
CCCCCc1nc(-c2ccc(S(=O)(=O)Nc3ccc(CCNC[C@H](O)c4cccnc4)cc3)cc2)no1,3 µM,53%,0.023 µM,5.5 µM,3.6 h,2.4 h,36%,inactive,0.22 mg/kg,62%
CC(=O)CCCc1nc(-c2ccc(S(=O)(=O)Nc3ccc(CCNC[C@H](O)c4cccnc4)cc3)cc2)no1,57 µM,69%,0.13 µM,70 µM,,,,,,
CCCCc1nc(-c2ccc(S(=O)(=O)Nc3ccc(CCNC[C@H](O)c4cccnc4)cc3)cc2)no1,6.5 µM,86%,0.032 µM,55 µM,,,,,,
Cc1nc(-c2ccc(S(=O)(=O)Nc3ccc(CCNC[C@H](O)c4cccnc4)cc3)cc2)no1,10 µM,15%,> 0.1 µM,10 µM,,,,,,
CCCCCCc1nc(-c2ccc(S(=O)(=O)Nc3ccc(CCNC[C@H](O)c4cccnc4)cc3)cc2)no1,1 µM,79%,0.035 µM,2 µM,,,,,,
